Data as given in patent publication US8093273B2, “Flavanoids and isoflavanoids for the prevention and treatment of cardiovascular diseases” (Resverlogix Corp., priority 2004, dated 2012).
Values after ≈ are worked out from the molar mass of the structure shown. Where two headings read alike, the source gives them in different places.

Legend:
Caco-2 permeability = assay type: in vitro ADME, human; settings: human
Source text: (§1) The Caco-2 cell drug transport model is widely used for screening compounds in drug discovery to assess intestinal transport and predict absorption rates.

human ApoA-I promoter [1] = test: Kinetics of ApoA-I promoter induction in Caco-2 cells transfected with pAI.474-Luc; assay type: cell-based; settings: time points from 4 to 72 hours
Protocol: Accordingly, the kinetics of induction of the ApoA-I promoter were assessed.
Caco-2 cells transfected with pAI.474-Luc were treated with compounds of the invention at selected time points varying from 4 to 72 hours. This construct pAI.474-Luc contained the human ApoA-I promoter fused to the reporter gene, firefly luciferase (Luc).
Further, maximal stimulation appeared following 48 hour exposure. […] Maximal stimulation appeared following 48 hour exposure to the compound.

human ApoA-I promoter [2] = test: ApoA-I promoter induction in HepG2 liver cells (pAI.474-Luc luciferase reporter); assay type: cell-based; settings: average values at 15 μM, 48 hours incubation
Protocol: This study determined whether compounds of the invention have an effect on ApoA-I promoter activity expression in HepG2 cells, a liver cell line. Cells were grown under conditions recommended by the ATCC and summarized by Wong.
The promoter region of the gene encoding human ApoA-I was isolated and ligated upstream the structure gene of firefly luciferase to construct a reporter plasmid (pAI.474-Luc). The reporter plasmid, along with pRSV-β-galactosidase (as a control for transfection efficiency), were co-transfected into HepG2 cells. The cells were then incubated in an MEM selection media containing 20% fetal calf serum supplemented with G418 (final concentration: 0.5 mg/mL, Gibco) to give established strains that stably express from the reporter gene. The strains were seeded to a 6-well culture plates and incubated for 48 hours at 37° C. under 5% carbon dioxide. Cells were starved for 24 hrs in MEM selection media containing 0.5% FBS. Then, a solution of the compounds of the invention in DMSO (or other appropriate solvent) was added to the wells at a final concentration of 0 to 100 μM in MEM selection media containing 0.5% FBS.
After further incubation for 48 hours, the cells were harvested and lysed using Reporter Lysis Buffer (PROMEGA E3971), and 50 μL of luciferase assay reagent (PROMEGA E4550 Luciferase Reporter 1000 assay system) were added to measure luciferase activity with a luminometer (Fluoroskan Ascent FL from Thermo electron Corporation). Luciferase activity was normalized to lysate protein concentrations, measured using Bradford Reagent (Biorad Protein Assay reagent Cat #500-0006).

[3] = Solubility analysis in PBS (HPLC-UV); assay type: physicochemical; settings: aqueous buffer, thermodynamic from solid; 1 mg in 1 mL PBS, sonicated 1 hour, 25° C. for 3 hrs
Protocol: Samples were then centrifuged at 14,000 rpm for 6 minutes at room temperature. The supernatant was diluted with acetonitrile and was removed for analysis. Analysis was performed using HPLC-UV with 7-point standard curve to determine the concentration. The average concentration calculated is regarded as the solubility (μM).

hApoA-I transgenic mice = test: hApoA-I transgenic mice, oral gavage for 14 days; assay type: in vivo
Source text: To test whether the efficacy of compounds of the invention observed in vitro extended to an in vivo model, transgenic mice carrying multiple copies of the human ApoA-I gene (C57BI/6-tgn(apoa1)1 rub, Jackson Laboratory, Bar Harbor, Me.) were exposed to representative compounds of the invention. The exogenous human ApoA-I gene in these mice enables them to express the human ApoA-I protein under the control of this promoter.
Seven to eight week old male mice, transgenic for human ApoA-I were housed five per cage (10″×20″×8″ with aspen chip bedding) with pelleted Rodent chow [Purina 5001] and water available at all times. After an acclimation period of 1 week, animals were individually identified by numbering on tail and weighed. Mice were pre bled via the retro-orbital plexus, and 150 μl of blood was collected in 1.5 ml Eppendorf tube containing 1 μl of heparin and chilled on ice. Plasma was collected after centrifuging the whole blood at 14000 rpm [TOMY high speed micro-refrigerated centrifuge NTX-150] for 10 minutes at 4° C. and frozen at −80° C. Plasma was analyzed for: human ApoA-I by a human ApoA-I enzyme-linked Immunoassay [Direct Sandwich ELISA Calbiochem Cat#178422, Calbiochem Cat#178452, lot #B9076, Calbiochem Cat #178470 conjugated to Horse Radish Peroxidase (Cedarlane Cat#80220)]; total cholesterol [Ponte scientific reagents: # C7509-STD, #L7580-18, # C7510]; and triglyceride [Pointe Scientific Reagents: # 7532-STD, # L7580-18, #7532]. All samples were measured in triplicates and expressed as mg/dl. Mice were grouped based on the above plasma parameters and having an average body weight of 25 gm.
Two days following pre-bleed, mice were dosed by oral gavage daily for 14 days using a 20 gauge, 11/2″ curved disposable feeding needle [Popper & Sons]; when BID, mice were gavaged morning and afternoon (8 am and 5 pm); when SID mice were gavaged in morning (8 am). Compounds were prepared each day in vehicle. Test article(s), a positive control fenofibrate, and vehicle were dosed at volume of 5 mL/kg of body weight as a suspension (0.1 mL/20 g mouse). Fenofibrate was obtained commercially [SIGMA #F 6020]. Mice weights were recorded on day 1, 4, 7, 10, 12, and 15. On day 15, mice were weighed and fasted for 4 hours, sacrificed by inhalation of CO2 and blood was obtained via cardiac puncture (0.7-1.0 ml). Plasma was collected and frozen at −80° C. Samples were assayed for ApoA-I, total cholesterol, triglyceride and HDL-C by HPLC [Polaris 200 with an auto sampler Prostar 410 from Varian on a Superose 6 10/30 column from Amersham]. Samples were sent for NMR analysis [LipoScience] to identify particle size and subclass for lipoproteins. During necropsy, liver, brown fat, and the whole of small and large intestines were collected, cleaned with cold PBS and frozen at −80° C. for further analysis of compound levels. Variation between studies, in ApoA-I changes, was observed. Therefore, a relative comparison between individual(s) in the study groups was used.
4′-hydroxyflavone (10 mg/kg of body weight), 4-(4-oxo-4H-chromen-2-yl)phenyl nicotinate (Example 71) (10 mg/kg of body weight) and fenofibrate (100 mg/kg of body weight) were BID administered to hApoA-I transgenic mice daily for fourteen days by oral gavage in 0.5% Methylcellulose (w/v)/1% Tween 80 (w/v). Plasma was assayed for ApoA-I (FIG. 3A), HDL cholesterol and total cholesterol (FIG. 3B) and percent weight gain (FIG. 3C).
4′-hydroxyflavone (3 mg/kg of body weight), 4′-hydroxyflavone (10 mg/kg of body weight), 4′-hydroxyflavone (30 mg/kg of body weight), 2-(4-Hydroxy-phenyl)-pyrano[2,3-b]pyridin-4-one (10 mg/kg of body weight), and fenofibrate (100 mg/kg of body weight) were BID administered to hApoA-I transgenic mice daily for fourteen days by oral gavage in 0.5% methylcellulose (w/v)/1% Tween 80 (w/v). In this experiment plasma was assayed for ApoA-I. […]

human ApoA-I promoter [4] = test: ApoA-I promoter induction in Caco-2 intestinal cells (pAI.474-Luc luciferase reporter); assay type: cell-based; settings: Caco-2 cells, 15 μM, 48 hours incubation, luciferase activity vs control samples
How it was run: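 Caco-2 cells stably carrying the human ApoA-I promoter–firefly luciferase construct (pAI.474-Luc) were starved 24 h in 0.5% FBS medium, then exposed to compound at 0 to 100 μM final for 48 h at 37° C. Luciferase activity in lysates was normalized to Bradford protein and compared with solvent-only and untreated controls.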

Caco-2 cells = test: Caco-2 permeability; assay type: in vitro ADME, human; settings: in vitro Caco-2 intestinal transport model
Source text: as §1

ApoA-I protein = ApoA-I protein expression in HepG2 cells (ELISA of conditioned media); assay type: cell-based, human; settings: 7.5 μM; for ApoA-I content in the medium (ELISA): 6 and 24 hours, vs untreated cells and cells treated with solvent; for time after addition of compound at which ApoA-I levels in the medium start to increase: time course 0, 6, 24 hours
Protocol: This study confirmed that compounds of the invention have an effect on ApoA-I protein secretion in HepG2 (liver) cells by measuring whether stimulation of transcriptional activity of the endogenous ApoA-I promoter in the HepG2 cells increased the abundance and secretion of ApoA-I protein.
The HepG2 cell line was obtained from the ATCC and cultured in MEM media supplemented with 10% FBS (Gibco), with 1 mM sodium pyruvate, 0.1 mM MEM non-essential amino acid, 2 mM L-glutamine, 100 U/ml penicillin, 100 μg/ml streptomycin and 5 μg/ml plasmocin. Cells were maintained at 37° C. in an atmosphere of 5% CO2 Cells were grown to 85% confluency prior to initiating the experiment.
Cells were plated and allowed to adhere overnight in a phenol red-free DMEM containing 10% of Charcoal/Dextran treated FBS (Hyclone), with 1 mM sodium pyruvate, 0.1 mM MEM non-essential amino acid, 2 mM L-glutamine, 100 U/ml penicillin, 100 μg/ml streptomycin and 5 μg/ml plasmocin. The medium was removed, and cells were washed in 1×PBS. Cells were then starved in phenol red-free DMEM (serum free) for a period of 24 hours. Cells were then mock treated (untreated, DMSO), or treated with compound of the invention diluted in phenol red-free DMEM (serum free) media at a concentration of 7.5 μM. Cells and media were harvested at 0, 6 and 24 hours following compound treatment.
Medium was removed from cells at the desired times and applied to a solid phase capture sandwich in an ELISA assay according to manufacturer's instructions (Total human Apolipoprotein ELISA Assay-Alercheck).

human ApoA-I promoter [5] = settings: Caco-2 cells, reported by Wong; cited from earlier work
human ApoA-I promoter [6] = settings: Caco-2 cells, reported by Wong (US 20040033480); cited from earlier work
[7] = subjects with low HDL-C; Rubins et al. 1999; cited from earlier work
[8] = following oral administration; Gugler et al. 1975; cited from earlier work

Structure (SMILES): O=c1cc(-c2ccc(O)cc2)oc2ccccc12 [4′-hydroxyflavone, reference compound]
- Papp (Caco-2 permeability; Caco-2): 4.31 ×10⁻⁶ cm/s
- exposure time of maximal stimulation of ApoA-I promoter activity (human ApoA-I promoter [1]): 48 h
- ApoA-I Promoter Induction (human ApoA-I promoter [2]): increased
- solubility at 3 h [3]: 5.04 µM (≈ 1.2 µg/mL)
- plasma ApoA-I, net % change over vehicle (hApoA-I transgenic mice; Experiment A, 10 mg/kg BID oral gavage, 14 days, 0.5% methylcellulose/1% Tween 80): 32.44%
- HDL cholesterol, net % change (hApoA-I transgenic mice; Experiment A, 10 mg/kg BID oral gavage, two weeks, NMR lipoprotein profile): 12.6%
- liver weight gain normalized to body weight, compared to vehicle (hApoA-I transgenic mice; Experiment A, 10 mg/kg BID, day 15, male mice): minor changes
- change in ApoA-I over vehicle (hApoA-I transgenic mice; Experiment B, 3 and 30 mpk BID oral gavage, 14 days): lack of statistically significant change
- plasma ApoA-I, net % change over vehicle (hApoA-I transgenic mice; Experiment B, 10 mpk BID oral gavage, two weeks): 31.24%

Structure (SMILES): O=c1cc(-c2ccc(O)cc2)oc2cc(O)cc(O)c12 [5,7-Dihydroxy-2-(4-hydroxy-phenyl)-chromen-4-one, reference compound]
- ApoA-I Promoter Induction (human ApoA-I promoter [4]): increased
- exposure time of maximal stimulation of ApoA-I promoter activity (human ApoA-I promoter [1]): 48 h

Structure (SMILES): O=c1cc(-c2ccc(O)cc2)oc2cc(O)cc(O)c12 [5,7-dihydroxy-2-(4-hydroxyphenyl)-4H-chomen-4-one] [reference compound]
- % Transported Paap (Caco-2 cells): 1.5 ×10⁻⁶ cm/s
- ApoA-I Promoter Induction (human ApoA-I promoter [2]): increased

Structure (SMILES): Cc1c(-c2ccc(O)cc2)oc2ccccc2c1=O [Example 24, 2-(4-hydroxyphenyl)-3-methyl-4H-chromen-4-one]
- ApoA-I content in the medium (ELISA) (ApoA-I protein): increased significantly
- time after addition of compound at which ApoA-I levels in the medium start to increase (ApoA-I protein): ~6 h
- melting point: 241 to 242 °C

Structure (SMILES): COc1ccc(-c2cc(=O)c3cccnc3o2)cc1 [Example 44, 2-(4-methoxyphenyl)-4H-pyrano[2,3-b]pyridine-4-one]
- ApoA-I Promoter Induction (human ApoA-I promoter [4]): increased
- ApoA-I content in the medium (ELISA) (ApoA-I protein): increased significantly
- time after addition of compound at which ApoA-I levels in the medium start to increase (ApoA-I protein): ~6 h
- melting point: 269 to 270 °C

Structure (SMILES): Oc1ccc(-c2cc3ncccc3cn2)cc1 [Example 57, 4-(1,6-naphthyridin-7-yl)phenol]
- Papp (Caco-2 permeability; Caco-2): 5.34 ×10⁻⁶ cm/s
- ApoA-I Promoter Induction (human ApoA-I promoter [4]): increased
- ApoA-I content in the medium (ELISA) (ApoA-I protein): increased significantly
- time after addition of compound at which ApoA-I levels in the medium start to increase (ApoA-I protein): ~6 h
- melting point: 219 to 221 °C
- change in vivo at 10 mg/kg (hApoA-I transgenic mice; Mus musculus, po, 336 h, Table 6 fourth group, 10 mg/kg BID 14 days, relative to pretreatment, Control 3 1.11, read-out: ApoA-I (% change)): 9.49%

Structure (SMILES): Oc1ccc(/C=C/c2cc(O)cc(O)c2)cc1 [Resveratrol, resveratrol, reference compound]
- Papp (Caco-2 permeability; in vitro Caco-2 intestinal transport model, read-out: % Transported Paap): 3.34 ×10⁻⁶ cm/s
- % Transported Paap (Caco-2 cells): 3.34 ×10⁻⁶ cm/s
- exposure time of maximal stimulation of ApoA-I promoter activity (human ApoA-I promoter [5]): 16 h
- ApoA-I Promoter Induction (human ApoA-I promoter [4]): increased
- increase of ApoA-I promoter activity over untreated control (human ApoA-I promoter [6]): 2.5 times

Structure (SMILES): Cc1ccc(C)c(OCCCC(C)(C)C(=O)O)c1 [gemfibrozil]
- increase in the HDL-C level [7]: 6%
- reduction of the CHD risk [7]: 22%

Structure (SMILES): O=c1c(O)c(-c2ccc(O)c(O)c2)oc2cc(O)cc(O)c12 [quercetin]
- intestinal absorption [8]: less than 1%
